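Results reflect a 48-hour exposure of cells in 96-well plates to compound at five concentrations. Here, GI50 denotes the concentration required for 50% inhibition of growth. Definition used: TGI = concentration required for complete inhibition of growth.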
How the values were obtained:
Experiment in all cases: inhibition of tumour cell growth, NCI panel, 48 h
[1] = test system: DU-145 prostate
[2] = test system: TK-10 renal
[3] = test system: 786-0 renal
[4] = test system: SR leukemia
[5] = test system: OVCAR-4 ovarian
[6] = test system: MDA-MB-231 breast
[7] = test system: SF-268 CNS
[8] = test system: SNB-75 CNS
[9] = test system: SK-OV-3 ovarian
[10] = test system: NCI/ADR-RES ovarian
[11] = test system: RPMI-8226 leukemia
[12] = test system: HCT-116 colon
[13] = test system: T-47D breast
[14] = test system: IGROV1 ovarian
[15] = test system: SK-MEL-2 melanoma
[16] = test system: M14 melanoma
[17] = test system: SF-295 CNS
[18] = test system: NCI-H460 lung
[19] = test system: HT29 colon
[20] = test system: NCI-H522 lung
[21] = test system: NCI-H226 lung
[22] = test system: SN12C renal
[23] = test system: SF-539 CNS
[24] = test system: UO-31 renal
[25] = test system: MDA-N
[26] = test system: MDA-MB-435
[27] = test system: UACC-62 melanoma
[28] = test system: RXF 393 renal
[29] = test system: OVCAR-3 ovarian
[30] = test system: MALME-3M melanoma
[31] = test system: PC-3 prostate
[32] = test system: KM12 colon
[33] = test system: OVCAR-5 ovarian
[34] = test system: SW-620 colon
[35] = test system: SNB-19 CNS
[36] = test system: HS 578T breast
[37] = test system: SK-MEL-28 melanoma
[38] = test system: CCRF-CEM leukemia
[39] = test system: NCI-H23 lung
[40] = test system: HL-60(TB) leukemia
[41] = test system: U251 CNS
[42] = test system: LOX IMVI melanoma
[43] = test system: HCT-15 colon
[44] = test system: MOLT-4 leukemia
[45] = test system: HCC-2998 colon
[46] = test system: A498 renal
[47] = test system: HOP-62 NSCLC
[48] = test system: COLO 205 colon
[49] = test system: K-562 leukemia
[50] = test system: ACHN renal
[51] = test system: OVCAR-8 ovarian
[52] = test system: MCF7 breast
[53] = test system: UACC-257 melanoma

CCC1=C(C)c2cc3[n-]c(cc4nc(c(C=O)c5[n-]c(cc1n2)c(C)c5CC)C(C)=C4CC)c(C)c3CC.[Ni+2]
GI50 [1]: > 100 µM
TGI [1]: > 100 µM
GI50 [2]: > 100 µM
TGI [2]: > 100 µM
GI50 [3]: > 100 µM
TGI [3]: > 100 µM
GI50 [4]: 0.022 µM
TGI [4]: > 100 µM
GI50 [5]: > 100 µM
TGI [5]: > 100 µM
GI50 [6]: > 100 µM
TGI [6]: > 100 µM
GI50 [7]: > 100 µM
TGI [7]: > 100 µM
GI50 [8]: 93.6 µM
TGI [8]: > 100 µM
GI50 [9]: > 100 µM
TGI [9]: > 100 µM
GI50 [10]: > 100 µM
TGI [10]: > 100 µM
GI50 [11]: > 100 µM
TGI [11]: > 100 µM
GI50 [12]: > 100 µM
TGI [12]: > 100 µM
GI50 [13]: > 100 µM
TGI [13]: > 100 µM
GI50 [14]: > 100 µM
TGI [14]: > 100 µM
GI50 [15]: > 100 µM
TGI [15]: > 100 µM
GI50 [16]: > 100 µM
TGI [16]: > 100 µM
GI50 [17]: > 100 µM
TGI [17]: > 100 µM
GI50 [18]: > 100 µM
TGI [18]: > 100 µM
GI50 [19]: > 100 µM
TGI [19]: > 100 µM
GI50 [20]: > 100 µM
TGI [20]: > 100 µM
GI50 [21]: > 100 µM
TGI [21]: > 100 µM
GI50 [22]: > 100 µM
TGI [22]: > 100 µM
GI50 [23]: > 100 µM
TGI [23]: > 100 µM
GI50 [24]: > 100 µM
TGI [24]: > 100 µM
GI50 [25]: > 100 µM
TGI [25]: > 100 µM
GI50 [26]: > 100 µM
TGI [26]: > 100 µM
GI50 [27]: > 100 µM
TGI [27]: > 100 µM
GI50 [28]: > 100 µM
TGI [28]: > 100 µM
GI50 [29]: > 100 µM
TGI [29]: > 100 µM
GI50 [30]: > 100 µM
TGI [30]: > 100 µM
GI50 [31]: > 100 µM
TGI [31]: > 100 µM
GI50 [32]: > 100 µM
TGI [32]: > 100 µM
GI50 [33]: > 100 µM
TGI [33]: > 100 µM
GI50 [34]: > 100 µM
TGI [34]: > 100 µM
GI50 [35]: > 100 µM
TGI [35]: > 100 µM
GI50 [36]: > 100 µM
TGI [36]: > 100 µM
GI50 [37]: > 100 µM
TGI [37]: > 100 µM
GI50 [38]: > 100 µM
TGI [38]: > 100 µM
GI50 [39]: > 100 µM
TGI [39]: > 100 µM
GI50 [40]: > 100 µM
TGI [40]: > 100 µM
GI50 [41]: > 100 µM
TGI [41]: > 100 µM
GI50 [42]: > 100 µM
TGI [42]: > 100 µM
GI50 [43]: > 100 µM
TGI [43]: > 100 µM
GI50 [44]: > 100 µM
TGI [44]: > 100 µM
GI50 [45]: > 100 µM
TGI [45]: > 100 µM
GI50 [46]: > 100 µM
TGI [46]: > 100 µM
GI50 [47]: > 100 µM
TGI [47]: > 100 µM
GI50 [48]: > 100 µM
TGI [48]: > 100 µM
GI50 [49]: > 100 µM
TGI [49]: > 100 µM
GI50 [50]: > 100 µM
TGI [50]: > 100 µM
GI50 [51]: > 100 µM
TGI [51]: > 100 µM
GI50 [52]: > 100 µM
TGI [52]: > 100 µM
GI50 [53]: > 100 µM
TGI [53]: > 100 µM
